Test results: article PMC2990605 (British Journal of Cancer, 2010)
“Also recorded” adds a separate entry of the source.

Experiment: Adverse events (CTCAEv3.0), worst grade per patient regardless of relation, and laboratory parameters
Format: in vivo
Protocol: Toxicity was evaluated according to common toxicity criteria for adverse events (CTCAEv3.0). The MTD was defined as the dose level(s) at which at least two out of six patients developed DLT.
Toxicity assessment, haematology and clinical biochemistry were performed at baseline and weekly during the study. Physical and ECOG performance status were recorded at baseline and before the next cycle.

## CC(C)C[C@@H](C(=O)N[C@H](C(=O)OC1CCCC1)c1ccccc1)[C@H](O)C(=O)NO [tosedostat]
human, in vivo
  Pollakiuria, patients with events, %: 5%
  Pruritus, CTCAE grade 1, patients: 5
  Pruritus, CTCAE grade 2, patients: 0
  Pruritus, CTCAE grade 3, patients: 1
  Pruritus, CTCAE grade 4, patients: 0
  Pruritus, patients with events, %: 27%
  Pulmonary embolism, CTCAE grade 1, patients: 0
  Pulmonary embolism, CTCAE grade 2, patients: 0
  Pulmonary embolism, CTCAE grade 4, patients: 0
  Pyrexia, CTCAE grade 1, patients: 4
  Pyrexia, CTCAE grade 2, patients: 2
  Pyrexia, CTCAE grade 3, patients: 0
  Pyrexia, CTCAE grade 4, patients: 0
  Pyrexia, patients with events, %: 27%
  Rash, CTCAE grade 1, patients: 9
  Rash, CTCAE grade 2, patients: 1
  Rash, CTCAE grade 3, patients: 2
  Rash, CTCAE grade 4, patients: 0
  Rash, patients with events, %: 55%
  Renal and urinary disorders, patients with events, %: 23%
  Respiratory, thoracic and mediastinal disorders, patients with events, %: 73%
  SAEs considered disease-related: 13
  SAEs reported, total number: 19
  Skin and subcutaneous tissue disorders, patients with events, %: 100%
  Spinal cord compression, CTCAE grade 1, patients: 0
  Spinal cord compression, CTCAE grade 2, patients: 0
  Spinal cord compression, CTCAE grade 3, patients: 1
  Spinal cord compression, CTCAE grade 4, patients: 0
  Spinal cord compression, patients with events, %: 5%
  Tumour pain, CTCAE grade 1, patients: 0
  Tumour pain, CTCAE grade 2, patients: 1
  Tumour pain, CTCAE grade 3, patients: 2
  Tumour pain, CTCAE grade 4, patients: 0
  Tumour pain, patients with events, %: 14%
  Urinary tract infection, CTCAE grade 1, patients: 0
  Urinary tract infection, CTCAE grade 2, patients: 1
  Urinary tract infection, CTCAE grade 3, patients: 1
  Urinary tract infection, CTCAE grade 4, patients: 0
  Urinary tract infection, patients with events, %: 9%
  Vomiting, CTCAE grade 1, patients: 3
  Vomiting, CTCAE grade 2, patients: 2
  Vomiting, CTCAE grade 3, patients: 0
  Vomiting, CTCAE grade 4, patients: 0
  Vomiting, patients with events, %: 23%
  drug-related adverse event: alopecia: 95%
  drug-related adverse event: fatigue: 95%
  drug-related adverse event: peripheral sensory neuropathy: 59%
  drug-related adverse event: rash: 55%
  incidence and severity of neutropenia/leukopenia, anaemia, myalgia and nausea/vomiting: not increased relative to paclitaxel alone
  nadir of median haemoglobin, WBC, neutrophils and lymphocytes in each cycle: 15 days
  nadir of median platelets in each cycle: 8 days
  patients with SAEs: 12
  γ-glutamyltransferase increased, CTCAE grade 1, patients: 0
  γ-glutamyltransferase increased, CTCAE grade 2, patients: 1
  γ-glutamyltransferase increased, CTCAE grade 3, patients: 1
  γ-glutamyltransferase increased, CTCAE grade 4, patients: 0
  γ-glutamyltransferase increased, patients with events, %: 9%
human, in vivo, 21 days
  Alanine aminotransferase increased, CTCAE grade 1, patients: 1
  Alanine aminotransferase increased, CTCAE grade 2, patients: 2
  Alanine aminotransferase increased, CTCAE grade 3, patients: 0
  Alanine aminotransferase increased, CTCAE grade 4, patients: 0
  Alanine aminotransferase increased, patients with events, %: 14%
  Alopecia, CTCAE grade 2, patients: 8
  Alopecia, CTCAE grade 3, patients: 0
  Alopecia, CTCAE grade 4, patients: 0
  Alopecia, patients with events, %: 68%
  Anorexia, CTCAE grade 1, patients: 4
  Anorexia, CTCAE grade 2, patients: 0
  Anorexia, CTCAE grade 3, patients: 0
  Anorexia, CTCAE grade 4, patients: 0
  Anorexia, patients with events, %: 18%
  Arthralgia, CTCAE grade 1, patients: 5
  Arthralgia, CTCAE grade 2, patients: 0
  Arthralgia, CTCAE grade 3, patients: 0
  Arthralgia, CTCAE grade 4, patients: 0
  Arthralgia, patients with events, %: 23%
  Back pain, CTCAE grade 1, patients: 2
  Back pain, CTCAE grade 2, patients: 0
  Back pain, CTCAE grade 3, patients: 0
  Back pain, CTCAE grade 4, patients: 0
  Back pain, patients with events, %: 9%
  Blood bilirubin, CTCAE grade 1, patients: 0
  Blood bilirubin, CTCAE grade 2, patients: 0
  Blood bilirubin, CTCAE grade 3, patients: 0
  Blood bilirubin, CTCAE grade 4, patients: 0
  Blood bilirubin, patients with events, %: 0%
  Bronchitis, CTCAE grade 1, patients: 0
  Bronchitis, CTCAE grade 2, patients: 0
  Bronchitis, CTCAE grade 3, patients: 0
  Bronchitis, CTCAE grade 4, patients: 0
  Bronchitis, patients with events, %: 0%
  Constipation, CTCAE grade 1, patients: 3
  Constipation, CTCAE grade 2, patients: 1
  Constipation, CTCAE grade 3, patients: 0
  Constipation, CTCAE grade 4, patients: 0
  Constipation, patients with events, %: 18%
  Cough, CTCAE grade 1, patients: 5
  Cough, CTCAE grade 2, patients: 0
  Cough, CTCAE grade 3, patients: 0
  Cough, CTCAE grade 4, patients: 0
  Cough, patients with events, %: 23%
  Cystitis, CTCAE grade 1, patients: 0
  Cystitis, CTCAE grade 2, patients: 0
  Cystitis, CTCAE grade 3, patients: 0
  Cystitis, CTCAE grade 4, patients: 0
  Cystitis, patients with events, %: 0%
  Dehydration, CTCAE grade 1, patients: 0
  Dehydration, CTCAE grade 2, patients: 0
  Dehydration, CTCAE grade 3, patients: 1
  Dehydration, CTCAE grade 4, patients: 0
  Dehydration, patients with events, %: 5%
  Diabetes mellitus, CTCAE grade 1, patients: 0
  Diabetes mellitus, CTCAE grade 2, patients: 0
  Diabetes mellitus, CTCAE grade 3, patients: 1
  Diabetes mellitus, CTCAE grade 4, patients: 0
  Diabetes mellitus, patients with events, %: 5%
  Diarrhoea, CTCAE grade 1, patients: 2
  Diarrhoea, CTCAE grade 2, patients: 0
  Diarrhoea, CTCAE grade 3, patients: 0
  Diarrhoea, CTCAE grade 4, patients: 0
  Diarrhoea, patients with events, %: 9%
  Dizziness, CTCAE grade 1, patients: 4
  Dizziness, CTCAE grade 2, patients: 1
  Dizziness, CTCAE grade 3, patients: 0
  Dizziness, CTCAE grade 4, patients: 0
  Dizziness, patients with events, %: 23%
  Drug hypersensitivity, CTCAE grade 1, patients: 0
  Drug hypersensitivity, CTCAE grade 2, patients: 0
  Drug hypersensitivity, CTCAE grade 3, patients: 0
  Drug hypersensitivity, CTCAE grade 4, patients: 0
  Drug hypersensitivity, patients with events, %: 0%
  Dry skin, CTCAE grade 1, patients: 0
  Dry skin, CTCAE grade 2, patients: 0
  Dry skin, CTCAE grade 3, patients: 1
  Dry skin, CTCAE grade 4, patients: 0
  Dry skin, patients with events, %: 5%
  Dyspnoea, CTCAE grade 1, patients: 0
  Eosinophilic myocarditis, CTCAE grade 1, patients: 0
  Eosinophilic myocarditis, CTCAE grade 2, patients: 0
  Eosinophilic myocarditis, CTCAE grade 3, patients: 0
  Eosinophilic myocarditis, CTCAE grade 4, patients: 0
  Eosinophilic myocarditis, patients with events, %: 0%
  Erythema, CTCAE grade 1, patients: 0
  Erythema, CTCAE grade 2, patients: 0
  Erythema, CTCAE grade 3, patients: 0
  Erythema, CTCAE grade 4, patients: 0
  Erythema, patients with events, %: 0%
  Fatigue, CTCAE grade 1, patients: 7
  Fatigue, CTCAE grade 2, patients: 2
  Fatigue, CTCAE grade 3, patients: 1
  Fatigue, CTCAE grade 4, patients: 0
  Fatigue, patients with events, %: 45%
  Gastric dilatation, CTCAE grade 1, patients: 0
  Gastric dilatation, CTCAE grade 2, patients: 0
  Gastric dilatation, CTCAE grade 3, patients: 1
  Gastric dilatation, CTCAE grade 4, patients: 0
  Gastric dilatation, patients with events, %: 5%
  General physical health deterioration, CTCAE grade 1, patients: 0
  General physical health deterioration, CTCAE grade 2, patients: 0
  General physical health deterioration, CTCAE grade 3, patients: 0
  General physical health deterioration, CTCAE grade 4, patients: 0
  General physical health deterioration, patients with events, %: 0%
  Hypercalcaemia, CTCAE grade 1, patients: 0
  Hypercalcaemia, CTCAE grade 2, patients: 0
  Hypercalcaemia, CTCAE grade 3, patients: 0
  Hypercalcaemia, CTCAE grade 4, patients: 0
  Hypercalcaemia, patients with events, %: 0%
  Hyperglycaemia, CTCAE grade 1, patients: 0
  Hyperglycaemia, CTCAE grade 2, patients: 0
  Hyperglycaemia, CTCAE grade 3, patients: 2
  Hyperglycaemia, CTCAE grade 4, patients: 0
  Hyperglycaemia, patients with events, %: 9%
  Hyperhidrosis, CTCAE grade 1, patients: 1
  Hyperhidrosis, CTCAE grade 2, patients: 0
  Hyperhidrosis, CTCAE grade 3, patients: 0
  Hyperhidrosis, CTCAE grade 4, patients: 0
  Hyperhidrosis, patients with events, %: 5%
  Leukopenia, CTCAE grade 1, patients: 0
  Leukopenia, CTCAE grade 2, patients: 2
  Leukopenia, CTCAE grade 3, patients: 2
  Leukopenia, CTCAE grade 4, patients: 0
  Leukopenia, patients with events, %: 18%
  Malaise, CTCAE grade 2, patients: 0
  Malaise, CTCAE grade 3, patients: 1
  Malaise, CTCAE grade 4, patients: 0
  Malaise, patients with events, %: 5%
  Mucosal inflammation, CTCAE grade 1, patients: 2
  Mucosal inflammation, CTCAE grade 2, patients: 1
  Mucosal inflammation, CTCAE grade 3, patients: 0
  Mucosal inflammation, CTCAE grade 4, patients: 0
  Mucosal inflammation, patients with events, %: 14%
  Myalgia, CTCAE grade 1, patients: 7
  Myalgia, CTCAE grade 2, patients: 1
  Myalgia, CTCAE grade 3, patients: 1
  Myalgia, CTCAE grade 4, patients: 0
  Myalgia, patients with events, %: 41%
  Nasopharyngitis, CTCAE grade 1, patients: 2
  Nasopharyngitis, CTCAE grade 2, patients: 0
  Nasopharyngitis, CTCAE grade 3, patients: 0
  Nasopharyngitis, CTCAE grade 4, patients: 0
  Nasopharyngitis, patients with events, %: 9%
  Nausea, CTCAE grade 1, patients: 4
  Nausea, CTCAE grade 2, patients: 1
  Nausea, CTCAE grade 3, patients: 0
  Nausea, CTCAE grade 4, patients: 0
  Nausea, patients with events, %: 23%
  Neutropenia, CTCAE grade 1, patients: 0
  Neutropenia, CTCAE grade 2, patients: 1
  Neutropenia, CTCAE grade 3, patients: 2
  Neutropenia, CTCAE grade 4, patients: 3
  Neutropenia, patients with events, %: 27%
  Oedema peripheral, CTCAE grade 1, patients: 4
  Oedema peripheral, CTCAE grade 2, patients: 1
  Oedema peripheral, CTCAE grade 3, patients: 0
  Oedema peripheral, CTCAE grade 4, patients: 0
  Oedema peripheral, patients with events, %: 23%
  Oedema, CTCAE grade 1, patients: 3
  Oedema, CTCAE grade 2, patients: 0
  Oedema, CTCAE grade 3, patients: 0
  Oedema, CTCAE grade 4, patients: 0
  Oedema, patients with events, %: 14%
  Peripheral sensory neuropathy, CTCAE grade 1, patients: 4
  Peripheral sensory neuropathy, CTCAE grade 2, patients: 3
  Peripheral sensory neuropathy, CTCAE grade 3, patients: 0
  Peripheral sensory neuropathy, CTCAE grade 4, patients: 0
  Peripheral sensory neuropathy, patients with events, %: 32%
  Pollakiuria, CTCAE grade 1, patients: 0
  Pollakiuria, CTCAE grade 2, patients: 0
  Pollakiuria, CTCAE grade 3, patients: 0
  Pollakiuria, CTCAE grade 4, patients: 0
  Pollakiuria, patients with events, %: 0%
  Pruritus, CTCAE grade 1, patients: 3
  Pruritus, CTCAE grade 2, patients: 0
  Pruritus, CTCAE grade 3, patients: 1
  Pruritus, CTCAE grade 4, patients: 0
  Pruritus, patients with events, %: 18%
  Pyrexia, CTCAE grade 1, patients: 1
  Pyrexia, CTCAE grade 2, patients: 1
  Pyrexia, CTCAE grade 3, patients: 0
  Pyrexia, CTCAE grade 4, patients: 0
  Pyrexia, patients with events, %: 9%
  Rash, CTCAE grade 1, patients: 3
  Rash, CTCAE grade 2, patients: 1
  Rash, CTCAE grade 3, patients: 1
  Rash, CTCAE grade 4, patients: 0
  Rash, patients with events, %: 23%
  Spinal cord compression, CTCAE grade 1, patients: 0
  Spinal cord compression, CTCAE grade 2, patients: 0
  Spinal cord compression, CTCAE grade 3, patients: 0
  Spinal cord compression, CTCAE grade 4, patients: 0
  Spinal cord compression, patients with events, %: 0%
  Tumour pain, CTCAE grade 1, patients: 0
  Tumour pain, CTCAE grade 2, patients: 0
  Tumour pain, CTCAE grade 3, patients: 1
  Tumour pain, CTCAE grade 4, patients: 0
  Tumour pain, patients with events, %: 5%
  Urinary tract infection, CTCAE grade 1, patients: 0
  Urinary tract infection, CTCAE grade 2, patients: 0
  Urinary tract infection, CTCAE grade 3, patients: 1
  Urinary tract infection, CTCAE grade 4, patients: 0
  Urinary tract infection, patients with events, %: 5%
  Vomiting, CTCAE grade 1, patients: 3
  Vomiting, CTCAE grade 2, patients: 1
  Vomiting, CTCAE grade 3, patients: 0
  Vomiting, CTCAE grade 4, patients: 0
  Vomiting, patients with events, %: 18%
  γ-glutamyltransferase increased, CTCAE grade 1, patients: 0
  γ-glutamyltransferase increased, CTCAE grade 2, patients: 0
  γ-glutamyltransferase increased, CTCAE grade 3, patients: 1
  γ-glutamyltransferase increased, CTCAE grade 4, patients: 0
  γ-glutamyltransferase increased, patients with events, %: 5%
One patient, cohort 5, 6 days after third paclitaxel infusion, 2 days after last tosedostat dose
  death on study, cause: eosinophilic myocarditis, possibly related to study medication; also recorded: eosinophilic myocarditis, considered possibly related to paclitaxel, tosedostat or other medications
